Patent publication US20080039422A1, “Vitamin B12-Containing Compositions and Methods of Use” (Transition Therapeutics Inc., priority 2004, published 2008)
Values joined by “and” are separate entries in the source; they are usually repeats but may differ in a detail not shown here. Equal entries are not always repeated.

Assay: Solubility study (saturated solubility of CN-Cbl, 25°C, 16 hours, UV)
Assay type: physicochemical
Text: During the solubility study the following were investigated: • cosolvents (mixtures of ethanol and propylene glycol) • in-situ salt formers • surfactants • pH effects • in-situ salt formers and cosolvents Solubility Study Method
Results of CN-Cbl Solubility in Water and Determination of Equilibrium Time

cyanocobalamin [CN-Cbl]
pH of CN-Cbl Solution (Ref. FD4068 33, 0.1 M Choline, 40% v/v propylene glycol, 10% v/v ethanol): 12.61
Saturated Solubility (Ref. FD4068 33, Choline 0.100 M (12.12 mg/ml), 40% v/v propylene glycol, 10% v/v ethanol): 91.8 mg/ml and 0.068 M
pH of CN-Cbl Solultion (Ref. FD4068 33, Choline 0.100 M, 40% v/v propylene glycol, 10% v/v ethanol, Initial pH 12.68): 12.6 and 12.61
pH of CN-Cbl Solution (Ref. FD4068 34, 0.1 M Triethylamine, 40% v/v propylene glycol, 10% v/v ethanol): 10.97
Saturated Solubility (Ref. FD4068 38A, 10% v/v Ethanol, 40% v/v Propylene Glycol, 0.1 M Choline, pH adjusted with hydrochloric acid, Initial pH 8.58): 60.3 mg/mL
pH of CN-Cbl Solution (Ref. FD4068 38A, 10% v/v Ethanol, 40% v/v Propylene Glycol, 0.1 M Choline, Initial pH 8.58): 8.10
Saturated Solubility (Ref. FD4068 38B, 10% v/v Ethanol, 40% v/v Propylene Glycol, 0.1 M Choline, pH adjusted with hydrochloric acid, Initial pH 7.85): 59.4 mg/mL
pH of CN-Cbl Solution (Ref. FD4068 38B, 10% v/v Ethanol, 40% v/v Propylene Glycol, 0.1 M Choline, Initial pH 7.85): 7.70
Saturated Solubility (Ref. FD4068 39B, 10% v/v Ethanol, 40% v/v Propylene Glycol, 0.1 M Choline, pH adjusted with hydrochloric acid, Initial pH 8.99): 63.1 mg/mL
pH of CN-Cbl Solution (Ref. FD4068 39B, 10% v/v Ethanol, 40% v/v Propylene Glycol, 0.1 M Choline, Initial pH 8.99): 8.01
Saturated Solubility (Ref. FD4068 39C, 10% v/v Ethanol, 40% v/v Propylene Glycol, 0.1 M Choline, pH adjusted with hydrochloric acid, Initial pH 7.43): 63 mg/mL
pH of CN-Cbl Solution (Ref. FD4068 39C, 10% v/v Ethanol, 40% v/v Propylene Glycol, 0.1 M Choline, Initial pH 7.43): 8.00
Saturated Solubility (Ref. FD4068 42A, Choline 0.055 M (6.71 mg/ml), 40% v/v propylene glycol, 10% v/v ethanol): 80.8 mg/ml and 0.060 M
pH of CN-Cbl Solultion (Ref. FD4068 42A, Choline 0.055 M, 40% v/v propylene glycol, 10% v/v ethanol, Initial pH 12.49): 12.44
Saturated Solubility (Ref. FD4068 42B, Choline 0.068 M (8.23 mg/ml), 40% v/v propylene glycol, 10% v/v ethanol): 82.8 mg/ml and 0.061 M
pH of CN-Cbl Solultion (Ref. FD4068 42B, Choline 0.068 M, 40% v/v propylene glycol, 10% v/v ethanol, Initial pH 12.63): 12.53
Saturated Solubility (Ref. FD4068 43A, Choline 0.111 M (13.41 mg/ml), 40% v/v propylene glycol, 10% v/v ethanol): 92.1 mg/ml and 0.068 M
pH of CN-Cbl Solultion (Ref. FD4068 43A, Choline 0.111 M, 40% v/v propylene glycol, 10% v/v ethanol, Initial pH 12.80): 12.76
pH of CN-Cbl Solution (Ref. FD4068 89B, 0.15 ml 2m HCl + 0.025M pH 5.6 citrate buffer, Choline 0.044 M): 6.97
Saturated Solubility (Ref. FD4068 89B, 0.15 ml 2m HCl + 0.025M pH 5.6 citrate buffer, Choline 0.044 M (5.34 mg/ml), Initial pH 7.03): 52.6 mg/mL
pH of CN-Cbl Solution (Ref. FD4068 96, 0.2 ml 2M HCl + 0.025M pH 7.0 phosphate buffer, Choline 0.044 M): 7.96
Saturated Solubility (Ref. FD4068 96, 0.2 ml 2M HCl + 0.025M pH 7.0 phosphate buffer, Choline 0.044 M (5.34 mg/ml), Initial pH 8.10): 54.5 mg/mL
pH of CN-Cbl Solution (Ref. FD4068 102A, 0.4m 2M HCl + 0.025M pH 6.8 phosphate buffer, Choline 0.088 M): 7.97
Saturated Solubility (Ref. FD4068 102A, 0.4m 2M HCl + 0.025M pH 6.8 phosphate buffer, Choline 0.088 M (10.67 mg/ml), Initial pH 8.12): 58.5 mg/mL
pH of CN-Cbl Solution (Ref. FD4068 103, no buffer, pH adjusted with HCl, Choline 0.044 M): 7.21
Saturated Solubility (Ref. FD4068 103, no buffer, pH adjusted with HCl, Choline 0.044 M (5.34 mg/ml), Initial pH 8.05): 54.6 mg/mL
Saturated Solubility (Ref. FD4068 107A, Choline chloride 0.044 M (6.14 mg/ml, Molar Ratio 1:1), 40% v/v propylene glycol, 10% v/v ethanol, pH adjusted to 8 with sodium hydroxide): 53.2 mg/mL
pH of CN-Cbl Solution (Ref. FD4068 107A, Choline chloride 0.044 M, 40% v/v propylene glycol, 10% v/v ethanol): 6.36
Saturated Solubility (Ref. FD4068 108B, Choline chloride 0.221 M (30.86 mg/ml, Molar Ratio 1:5), 40% v/v propylene glycol, 10% v/v ethanol, pH adjusted to 8 with sodium hydroxide): 60.1 mg/mL
pH of CN-Cbl Solution (Ref. FD4068 108B, Choline chloride 0.221 M, 40% v/v propylene glycol, 10% v/v ethanol): 6.51
Saturated Solubility (Ref. FD4068 109A, Choline chloride 0.133 M (18.57 mg/ml, Molar Ratio 1:3), 40% v/v propylene glycol, 10% v/v ethanol, pH adjusted to 8 with sodium hydroxide): 57.4 mg/mL
pH of CN-Cbl Solution (Ref. FD4068 109A, Choline chloride 0.133 M, 40% v/v propylene glycol, 10% v/v ethanol): 6.63
Saturated Solubility (Ref. FD4068 110A, Choline chloride 0.443 M (61.81 mg/ml, Molar Ratio 1:10), 40% v/v propylene glycol, 10% v/v ethanol, pH adjusted to 8 with sodium hydroxide): 66.6 mg/mL
pH of CN-Cbl Solution (Ref. FD4068 110A, Choline chloride 0.443 M, 40% v/v propylene glycol, 10% v/v ethanol): 6.40
Saturated Solubility (Ref. FD4068 112A, Choline chloride 0.443 M (61.81 mg/ml, 1:10), 40% v/v propylene glycol, 10% v/v ethanol, 0.025 M phosphate buffer pH 8): 66.8 mg/mL
pH of CN-Cbl Solution (Ref. FD4068 112A, Choline chloride 0.443 M, 40% v/v propylene glycol, 10% v/v ethanol, 0.025 M phosphate buffer): 7.93
Saturated Solubility (Ref. FD4068 112B, Choline chloride 0.184 M (25.75 mg/ml, 1:5), 40% v/v propylene glycol, 10% v/v ethanol, 0.025 M phosphate buffer pH 8): 62.7 mg/mL
pH of CN-Cbl Solution (Ref. FD4068 112B, Choline chloride 0.184 M, 40% v/v propylene glycol, 10% v/v ethanol, 0.025 M phosphate buffer): 7.97
Saturated Solubility (Water, Equilibrium Time 16 hours): 15.25 mg/mL
Saturated Solubility (Water, Equilibrium Time 24 hours): 15.47 mg/mL
Saturated Solubility (Water, Equilibrium Time 40 hours): 15.27 mg/mL
Saturated Solubility, mean (Water, mean of equilibrium times 16, 24, 40 hours): 15.33 mg/mL
pH of CN-Cbl Solution (saturated in 0.1 M Choline (12.12 mg/ml)): 12.5 and 12.49
pH of CN-Cbl Solution (saturated in 0.1 M Diethanolamine (10.51 mg/ml)): 10.15
pH of CN-Cbl Solution (saturated in 0.1 M L-arginine (17.42 mg/ml)): 10.22
pH of CN-Cbl Solution (saturated in 0.1 M L-lysine (16.42 mg/ml)): 9.59
pH of CN-Cbl Solution (saturated in 0.1 M Meglumine (19.52 mg/ml)): 10.70
pH of CN-Cbl Solution (saturated in 0.1 M Triethanolamine (14.92 mg/ml)): 9.26
pH of CN-Cbl Solution (saturated in 0.1 M Triethylamine (10.12 mg/ml)): 11.42
